The record followed here is patent publication US20060074129A1, “Method for obtaining ozonized oils and vegetable fats and use of said products for pharmaceutical and cosmetic purposes” (priority 2002, published 2006).

The subject of assay [1] is acute ulcer-necrotizing gingivitis. Briefly: Random phase III clinical assay in acute ulcer-necrotizing gingivitis. Type of assay: in vivo, human. To be noted: three times a day for 7 days. As to the method: A random phase III clinical assay was performed in a group of 48 patients suffering from acute ulcer-necrotizing gingivitis. From those patients, 24 formed the group with ozonized sunflower oil, by topical applications on the lesions, three times a day, for 7 days. The control group (24 patients) was treated with local applications of aqueous solution of sodium perborate, as rinsings, with similar periodicity to that of the group treated with ozonized sunflower oil. The tests were performed 3 or 7 days after the beginning of the treatments.

In assay [2] the test system is moderate simple periodontitis. Briefly: Random, controlled, single-blind phase III clinical trial in moderate simple periodontitis. The class given is in vivo, human. As for the experimental part:
In this study, we used ozonized sunflower oil in order to evaluate their effect on the treatment of moderate simple periodontitis and for preventing its recidivation. A random, controlled and single-blind phase III clinical trial was performed in 84 patients, older than 35 years, from both sexes. Ozonized sunflower oil was topically applied to 42 patients on the operated area and on the 7th, 14th and 21st days after operation on the adjacent periodontal tissues. The control group was formed by 42 patients that received the conventional treatment with chlorhexidine (aqueous solution 0.2%). An analytic index of hygiene, clinical and radiographical tests and microbiological controls was applied to the patients, at the beginning, on the 21st , 90th and 180th days and with intervals of 1 month until 9 months after operation. The effectiveness of the treatment after 180 days was considered as: good (satisfactory clinical and microbiological assessments) in 98% of the patients of the group treated with ozonized sunflower oil and in 78% of the control group; fairly good (some of the assessments were not satisfactory) for 2 and 17%, respectively, and in the category of bad (both assessments were not satisfactory) only 5% appears in the control group. Recidivation was more frequent in the control group (15%) than in the group treated with ozonized sunflower oil (5%). In general, the best clinical results (best evolution and healing during the study) and microbiological results were obtained in the group treated with ozonized sunflower oil, and also a lower percent of recidivation was found in that group.

The test system of another assay is Candida albicans. The assay is described as follows: Clinical study in vulvovaginal candidiasis. The class given is in vivo. To be noted: for healing: final vaginal exudate, six days after the last ovule; for time at which symptoms and signs disappeared in a higher percent: in vivo. As for the experimental part:
Ninety women, 17 to 51 years old, with diagnosis of vulvovaginal candidiasis were studied. Patients were allocated at random in three groups: 30 were treated with ovules containing 10% ozonized theobroma oil, 30 were treated with Nistatine and 30 with Clotrimazole. To all patients, a vaginal exudate was performed at the beginning and at the end of the treatment, six days after the application of the last ovule. Also, an interrogation and a physical test were performed to them. The clinical symptoms of those patients were pruritus, burning and leucorrhea with higher prevalence. […] Taking into account the final exudate, a healing of 97% was obtained for the patients treated with ozonized theobroma oil ovules, 80% for the group treated with Clotrimazole and 50% for the patients treated with Nistatine.

The next assay relates to blepharitis. Briefly: Clinical study in blepharitis with acute bacterial infection. Type of assay: in vivo, human. To be noted: topical on eyelid border, 7 days. As for the experimental part: The sample was constituted by 40 patients suffering from blepharitis, with acute bacterial infection. Twenty patients were treated with topical ozonized sunflower oil, three times a day, by rubbing the border of the eyelid with an applicator soaked with ozonized sunflower oil, during 7 days. The 20 other patients were treated in the same way with gentamycin ointment (0.3%), 4 times a day for 7 days. Healing of 95 and 88% was obtained with ozonized sunflower oil and gentamycin, respectively, with significant differences between both groups.

Compound sodium perborate showed a patients healed in assay [1] of 29.2%.
For the compound `[H]/N=C(\N/C(=N/[H])NCCCCCCNC(=N)NC(=N)Nc1ccc(Cl)cc1)Nc1ccc(Cl)cc1` [chlorhexidine], in assay [2] (after 180 days, both assessments not satisfactory), the “effectiveness of the treatment considered bad” value is given as 5%. Moreover, in assay [2] (after 180 days, satisfactory clinical and microbiological assessments), the “effectiveness of the treatment considered good” value came to 78%. For the same compound, the “effectiveness of the treatment considered fairly good” value in assay [2] (after 180 days, some of the assessments not satisfactory) was determined as 17%. Moreover, the recidivation in assay [2] (human, in vivo) was 15%.
For the compound Nistatine, in the assay with Candida albicans, the healing amounted to 50%; the “time at which symptoms and signs disappeared in a higher percent” value is “between the ninth and twelfth days”.
Regarding gentamycin, in the assay with blepharitis, the healing was 88%.
On to `Clc1ccccc1C(c1ccccc1)(c1ccccc1)n1ccnc1` [Clotrimazole], for which, in the assay with Candida albicans, the healing was 80%; the “time at which symptoms and signs disappeared in a higher percent” value was “between the first and the fourth days of treatment”.
